US20250282736A1, “SMALL MOLECULE MODULATORS OF HUMAN PREGNANE X RECEPTOR” (ST. JUDE CHILDREN'S RESEARCH HOSPITAL, priority 2022, published 2025)
Read-outs that look alike come from different tables or passages of the source.

Columns and labels:
hPXR [1] = molecular target: T1, hPXR (Homo sapiens (Human), UniProt O75469); test: hPXR binding assay; details: for inhibition at 10 µM: read-out: Binding (% inhibition at 10 μM)
hPXR [2] = molecular target: T1, hPXR; test: cell-based hPXR agonistic assay; details: for Agonist (% activation at 10 μM): rifampicin at 10 μM as 100% activation, DMSO (0.3%) as 0%
hPXR [3] = molecular target: T1, hPXR; test: cell-based hPXR antagonistic assay; details: for inhibition at 10 µM: read-out: Antagonist (% inhibition at 10 μM)
hPXR [4] = molecular target: T1, hPXR; test: cell-based hPXR inverse agonistic assay; details: for inhibition at 10 µM: read-out: Inverse agonist (% inhibition at 10 μM)
[5] = read-out: Binding (IC50/μM), hPXR binding assay
[6] = read-out: Agonist (EC50/μM), cell-based hPXR agonistic assay

T1 sequence (O75469 whole entry): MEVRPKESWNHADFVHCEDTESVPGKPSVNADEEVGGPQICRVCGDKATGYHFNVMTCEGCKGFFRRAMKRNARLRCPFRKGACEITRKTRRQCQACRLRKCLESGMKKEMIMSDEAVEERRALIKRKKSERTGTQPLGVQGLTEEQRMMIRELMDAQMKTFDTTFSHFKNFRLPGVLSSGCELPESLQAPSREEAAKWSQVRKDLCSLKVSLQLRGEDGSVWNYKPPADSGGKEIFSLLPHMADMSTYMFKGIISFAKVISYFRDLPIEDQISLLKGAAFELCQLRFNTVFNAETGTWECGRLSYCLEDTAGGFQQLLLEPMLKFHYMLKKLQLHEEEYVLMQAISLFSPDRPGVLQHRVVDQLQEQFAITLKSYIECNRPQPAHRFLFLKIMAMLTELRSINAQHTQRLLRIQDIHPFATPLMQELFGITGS

Row | Compound | inhibition at 10 µM (hPXR [1]) [%] | IC50 (hPXR [1]; [5]) [µM] | Agonist (% activation at 10 μM) (hPXR [2]) | EC50 (hPXR [2]; [6]) [µM] | IC50 (hPXR [3]) [µM] | IC50 (hPXR [4]) [µM] | EC50 (hPXR [2]) [µM] | inhibition at 10 µM (hPXR [3]) [%] | inhibition at 10 µM (hPXR [4]) [%] | IC50 (hPXR [1]) [µM] | IC50 (hPXR [3]; read-out: Antagonist (IC50/μM), cell-based hPXR antagonistic assay with rifampicin (5 μM)) [µM] | IC50 (hPXR [4]; read-out: Inverse agonist (IC50/μM), cell-based hPXR inverse agonistic assay) [µM]
1 | COc1ccc(OC)c(-n2nnc(C(=O)Nc3cc(C(C)(C)C)ccc3NC(C)=O)c2C)c1 [B38] | 60 | 3.22 ± 2.29 | (60 ± 13)% | 0.99 ± 0.22 | > 30 | > 30 |  |  |  |  |  | 
2 | COCCOCCOCCOCCOc1cc(NC(=O)c2nnn(-c3cc(OC)ccc3OC)c2C)cc(C(C)(C)C)c1 [D27] | 70 | 1 ± 0.08 |  |  | 2.14 ± 0.36 | 1.14 ± 0.58 | > 30 | 92 | 91 |  |  | 
3 | COc1ccc(OC)c(-n2nnc(C(=O)Nc3ccccc3)c2C)c1 [A1, 1-(2,5-dimethoxyphenyl)-5-methyl-N-phenyl-1H-1,2,3-triazole-4-carboxamide] |  |  | (33 ± 2)% |  | > 30 | > 30 | 24.5 ± 4.76 |  |  | > 30 |  | 
4 | COc1ccc(OC)c(-n2nnc(C(=O)Nc3cc(C(C)(C)C)ccc3OCC(=O)OC(C)(C)C)c2C)c1 [B24, tert-butyl 2-(4-(tert-butyl)-2-(1-(2,5-dimethoxyphenyl)-5-methyl-1H-1,2,3-triazole-4-carboxamido)phenoxy)acetate] | 74 | 0.5 ± 0.2 | (77 ± 1)% |  | > 30 | > 30 | 0.27 |  |  |  |  | 
5 | COc1ccc(C)cc1-n1nnc(C(=O)Nc2cc(N)cc(C(C)(C)C)c2)c1C [G5, N-(3-amino-5-(tert-butyl)phenyl)-1-(2-methoxy-5-methylphenyl)-5-methyl-1H-1,2,3-triazole-4-carboxamide] | 57 | 5.62 ± 0.49 |  |  | 7.05 ± 3.48 | 18.9 ± 3.74 | > 30 | 79 | 47 |  |  | 
6 | COc1ccc(-n2nnc(C(=O)Nc3ccccc3)c2C)cc1 [E4] |  |  |  |  | > 30 | > 30 | > 30 |  |  | > 30 |  | 
7 | CCc1cccc(NC(=O)c2nnn(-c3cc(OC)ccc3OC)c2C)c1 [A8] | 49 | 16.1 ± 0.54 |  |  | > 30 | > 30 | > 30 |  |  |  |  | 
8 | COc1ccc(OC)c(-n2nnc(C(=O)Nc3cc(OCCCN4CCN(C)CC4)cc(C(C)(C)C)c3)c2C)c1 [D18] |  |  |  |  | 5.32 | 3.73 ± 0.3 | > 30 | 105 | 126 | > 30 |  | 
9 | COc1ccc(OC)c(-n2nnc(C(=O)Nc3ccc4c(c3)Nc3ccccc3CC4)c2C)c1 [A23] |  |  |  |  | 13.4 ± 0.12 | > 30 | > 30 | 23 |  | > 30 |  | 
10 | COc1ccc(OC)c(-n2nnc(C(=O)Nc3cc(C(C)(C)C)ccc3OCCCCCCCCI)c2C)c1 [B19] | 68 | 0.5 ± 0.12 |  |  | 2.48 | 0.43 ± 0.14 | > 30 | 86 | 95 |  |  | 
11 | COc1ccc(OC)c(-n2nnc(S(=O)(=O)Nc3cccc(C(C)(C)C)c3)c2C)c1 [K6, N-(3-(tert-butyl)phenyl)-1-(2,5-dimethoxyphenvl)-5-methyl-1H-1,2,3-triazole-4-sulfonamide] | 97 | 0.0147 ± 0.0026 | (136 ± 26)% |  | > 30 | > 30 | 0.021 |  |  |  |  | 
12 | COc1ccc(-n2nnc(C(=O)Nc3cc(C)ccc3OC)c2C)cc1 [E10] | 53 | 1.2 ± 0.3 |  |  | > 30 | > 30 | > 30 |  |  |  |  | 
13 | CCC[C@H](CC)Oc1ccc(C(C)(C)C)cc1NC(=O)c1nnn(-c2cc(OC)c(F)cc2OC)c1C [M10, (S)—N-(5-(Tert-Butyl)-2-(Hexan-3-yloxy)Phenyl)-1-(4-Fluoro-2,5-Dimethoxyphenyl)-5-Methyl-1H-1,2,3-Triazole-4-Carboxamide] | 92 | 0.02 ± 0.005 |  |  | 0.023 ± 0.003 | 0.0044 ± 0.0015 | > 30 | 104 | 92 |  |  | 
14 | CCCCNc1cc(NC(=O)c2nnn(-c3cc(OC)ccc3OC)c2C)cc(C(C)(C)C)c1 [D4, N-(3-(tert-butyl)-5-(butylamino)phenyl)-1-(2,5-dimethoxyphenyl)-5-methyl-1H-1,2,3-triazole-4-carboxamide] |  | 0.45 ± 0.12 |  |  |  |  | > 30 |  |  |  | 0.13 | 0.039 ± 0.012
15 | CCCC(CC)Oc1ccc(C(C)(C)C)cc1NC(=O)c1nnn(-c2cc(OC)ccc2OC)c1C (centres unmarked) [B34, N-(5-(Tert-Butyl)-2-(Hexan-3-yloxy)Phenyl)-1-(2,5-Dimethoxyphenyl)-5-Methyl-1H-1,2,3-Triazole-4-Carboxamide] | 92 | 0.019 |  |  | 0.012 ± 0.003 | 0.0023 ± 0.0008 | > 30 | 108 | 147 |  |  | 
16 | CCCCOc1ccc(C(C)(C)C)cc1NC(=O)c1nnn(-c2cccnc2)c1C [H12] | 75 | 7.6 ± 2.06 | (44 ± 4)% | 4.28 ± 1.36 | > 30 | > 30 |  |  |  |  |  | 
17 | CCCC(C)Oc1ccc(C(C)(C)C)cc1NC(=O)c1nnn(-c2ccccc2OC)c1C (centres unmarked) [I2] | 88 | 0.0072 ± 0.0001 | (23 ± 19)% |  | 0.032 | > 30 | 0.049 ± 0.008 | 78 |  |  |  | 
18 | COc1ccc(OC)c(-n2nnc(C(=O)Nc3cccc(N4CCOCC4)c3)c2C)c1 [A14] |  |  |  |  | > 30 | > 30 | > 30 |  |  | > 30 |  | 
19 | COc1ccc(OC)c(-n2nnc(C(=O)Nc3cc(OCCCC(=O)O)cc(C(C)(C)C)c3)c2C)c1 [D30] | 71 | 1.71 ± 0.33 |  |  | 0.92 ± 0.12 | 0.19 | > 30 | 104 | 118 |  |  | 
20 | COc1ccc(OC)c(-n2nnc(C(=O)Nc3cc(OCCCCI)cc(C(C)(C)C)c3)c2C)c1 [D17, N-(3-(tert-butyl)-5-(4-iodobutoxy)phenyl)-1-(2,5-dimethoxyphenyl)-5-methyl-1H-1,2,3-triazole-4-carboxamide] | 50 | 0.18 |  |  | 0.066 ± 0.007 | 0.0088 ± 0.003 | > 30 | 112 | 120 |  |  | 
21 | COc1ccc(OC)c(-n2nnc(C(=O)Nc3cc(C(C)(C)C)ccc3OCCOCCOCCOCCO)c2C)c1 [B10] | 62 | 2.34 ± 0.57 |  |  | 1.92 ± 0.23 | 0.43 ± 0.14 | > 30 | 102 | 95 |  |  | 
22 | COc1ccc(OC)c(-n2nnc(C(=O)Nc3cc(OC(=O)c4nnn(-c5cc(OC)ccc5OC)c4C)cc(C(C)(C)C)c3)c2C)c1 [D13, 3-(tert-butyl)-5-(1-(2,5-dimethoxyphenyl)-5-methyl-1H-1,2,3-triazole-4-carboxamido)phenyl 1-(2,5-dimethoxyphenyl)-5-methyl-1H-1,2,3-triazole-4-carboxylate] |  |  |  |  | 0.83 ± 0.11 | 0.15 | > 30 | 68 | 93 | > 30 |  | 
23 | COc1ccc(-n2nnc(C(=O)Nc3ccc(C(C)(C)C)cc3)c2C)cc1 [E6] |  |  | (35 ± 3)% |  | > 30 | > 30 | 1.44 ± 0.27 |  |  | > 30 |  | 
24 | COc1ccc(-n2nnc(C(=O)Nc3ccc(C)cc3)c2C)cc1 [E7] |  |  | (29 ± 5)% |  | > 30 | > 30 | 0.79 ± 0.26 |  |  | > 30 |  | 
25 | COc1ccc(OC)c(-n2nnc(C(=O)Nc3cccc(C)c3)c2C)c1 [A3] | 52 | 10.9 ± 0.4 | (30 ± 3)% | 3.51 ± 0.86 | > 30 | > 30 |  |  |  |  |  | 
26 | COc1ccc(OC)c(-n2nnc(C(=O)Nc3ccc(N4CCN(C)CC4)cc3)c2C)c1 [A16] |  |  |  |  | > 30 | > 30 | > 30 |  |  | > 30 |  | 
27 | CCC(CC)Oc1ccc(C(C)(C)C)cc1NC(=O)c1nnn(-c2cc(OC)ccc2OC)c1C [B31] | 91 | 0.0075 ± 0.0011 |  |  | 0.015 | 0.0016 | > 30 | 105 | 111 |  |  | 
28 | COc1ccc(OC)c(-n2nnc(C(=O)Nc3cc(C(C)(C)C)ccc3OC(C)C)c2C)c1 [B12] | 88 | 0.021 ± 0.005 |  |  | 0.049 ± 0.01 | 0.0074 | > 30 | 107 | 119 |  |  | 
29 | CCC[C@H](CC)Oc1ccc(C(C)(C)C)cc1NC(=O)c1nnn(-c2cc(OC)c(OC)cc2OC)c1C [M9, (S)—N-(5-(Tert-Butyl)-2-(Hexan-3-yloxy)Phenyl)-5-Methyl-1-(2,4,5-Trimethoxyphenyl)-1H-1,2,3-Triazole-4-Carboxamide] | 91 | 0.0078 ± 0.0001 | (69 ± 4)% |  | 0.12 ± 0.01 | > 30 | 0.013 ± 0.01 | 32 |  |  |  | 
30 | COc1ccc(Cl)cc1-n1nnc(C(=O)Nc2cc(C(C)(C)C)cc(C(C)(C)C)c2)c1C [F1] | 67 | 0.044 ± 0.016 |  |  | 0.24 | 0.066 ± 0.014 | > 30 | 102 | 93 |  |  | 
